Experimental data reported in PubChem BioAssay (NCI).
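Growth conditions: 96-well plates. Treatment: test compound, 48 hours, 5 concentrations. Analysis: linear interpolation between bracketing concentrations; unreached endpoints set to highest concentration. TGI marks complete inhibition of growth.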

Tests used:
Experiment in all cases: inhibition of tumour cell growth, NCI panel, 48 h
OVCAR-3 ovarian = test system: OVCAR-3 ovarian
RXF 393 renal = test system: RXF 393 renal
NCI-H522 lung = test system: NCI-H522 lung
SN12C renal = test system: SN12C renal
TK-10 renal = test system: TK-10 renal
SF-295 CNS = test system: SF-295 CNS
LOX IMVI melanoma = test system: LOX IMVI melanoma
SK-OV-3 ovarian = test system: SK-OV-3 ovarian
EKVX NSCLC = test system: EKVX NSCLC
COLO 205 colon = test system: COLO 205 colon
HT29 colon = test system: HT29 colon
NCI-H23 lung = test system: NCI-H23 lung
786-0 renal = test system: 786-0 renal
IGROV1 ovarian = test system: IGROV1 ovarian
OVCAR-4 ovarian = test system: OVCAR-4 ovarian
SK-MEL-2 melanoma = test system: SK-MEL-2 melanoma
MDA-MB-231 breast = test system: MDA-MB-231 breast
MOLT-4 leukemia = test system: MOLT-4 leukemia
MDA-MB-435 = test system: MDA-MB-435
SF-539 CNS = test system: SF-539 CNS
NCI/ADR-RES ovarian = test system: NCI/ADR-RES ovarian
BT-549 breast = test system: BT-549 breast
HCT-15 colon = test system: HCT-15 colon
NCI-H460 lung = test system: NCI-H460 lung
KM12 colon = test system: KM12 colon
PC-3 prostate = test system: PC-3 prostate
SF-268 CNS = test system: SF-268 CNS
MDA-N = test system: MDA-N
SNB-75 CNS = test system: SNB-75 CNS
HS 578T breast = test system: HS 578T breast
SK-MEL-28 melanoma = test system: SK-MEL-28 melanoma
UACC-257 melanoma = test system: UACC-257 melanoma
ACHN renal = test system: ACHN renal
M14 melanoma = test system: M14 melanoma
UO-31 renal = test system: UO-31 renal
OVCAR-8 ovarian = test system: OVCAR-8 ovarian
T-47D breast = test system: T-47D breast
K-562 leukemia = test system: K-562 leukemia
HOP-62 NSCLC = test system: HOP-62 NSCLC
RPMI-8226 leukemia = test system: RPMI-8226 leukemia
OVCAR-5 ovarian = test system: OVCAR-5 ovarian
MALME-3M melanoma = test system: MALME-3M melanoma
SNB-19 CNS = test system: SNB-19 CNS
HCT-116 colon = test system: HCT-116 colon
MCF7 breast = test system: MCF7 breast
U251 CNS = test system: U251 CNS
SW-620 colon = test system: SW-620 colon
SR leukemia = test system: SR leukemia
DU-145 prostate = test system: DU-145 prostate
A549 NSCLC = test system: A549 NSCLC
SK-MEL-5 melanoma = test system: SK-MEL-5 melanoma
CCRF-CEM leukemia = test system: CCRF-CEM leukemia
NCI-H226 lung = test system: NCI-H226 lung
HCC-2998 colon = test system: HCC-2998 colon
UACC-62 melanoma = test system: UACC-62 melanoma
CAKI-1 renal = test system: CAKI-1 renal
A498 renal = test system: A498 renal
HL-60(TB) leukemia = test system: HL-60(TB) leukemia
HOP-92 NSCLC = test system: HOP-92 NSCLC

With `Cc1ccc(N(C)S(=O)(=O)c2ccccc2)cc1` the TGI (OVCAR-3 ovarian) was > 100 µM, the TGI (RXF 393 renal) was > 100 µM and the TGI (NCI-H522 lung) was > 100 µM. The TGI (SN12C renal) was > 100 µM, the TGI (TK-10 renal) was > 100 µM and the TGI (SF-295 CNS) was > 100 µM. For the same compound, the TGI (LOX IMVI melanoma) was > 100 µM, the TGI (SK-OV-3 ovarian) was > 100 µM and the TGI (EKVX NSCLC) was > 100 µM. For the same compound, the TGI (COLO 205 colon) was > 100 µM, the TGI (HT29 colon) was > 100 µM and the TGI (NCI-H23 lung) was > 100 µM. For the same compound, the TGI (786-0 renal) was > 100 µM, the TGI (IGROV1 ovarian) was > 100 µM and the TGI (OVCAR-4 ovarian) was > 100 µM. The TGI (SK-MEL-2 melanoma) was > 100 µM, the TGI (MDA-MB-231 breast) was > 100 µM and the TGI (MOLT-4 leukemia) was > 100 µM. For the same compound, the TGI (MDA-MB-435) was > 100 µM, the TGI (SF-539 CNS) was > 100 µM and the TGI (NCI/ADR-RES ovarian) was > 100 µM. The TGI (BT-549 breast) was > 100 µM, the TGI (HCT-15 colon) was > 100 µM and the TGI (NCI-H460 lung) was > 100 µM. For the same compound, the TGI (KM12 colon) was > 100 µM, the TGI (PC-3 prostate) was > 100 µM and the TGI (SF-268 CNS) was > 100 µM. The TGI (MDA-N) was > 100 µM, the TGI (SNB-75 CNS) was > 100 µM and the TGI (HS 578T breast) was > 100 µM. The TGI (SK-MEL-28 melanoma) was > 100 µM, the TGI (UACC-257 melanoma) was > 100 µM and the TGI (ACHN renal) was > 100 µM. The TGI (M14 melanoma) was > 100 µM, the TGI (UO-31 renal) was > 100 µM and the TGI (OVCAR-8 ovarian) was > 100 µM. For the same compound, the TGI (T-47D breast) was > 100 µM, the TGI (K-562 leukemia) was > 100 µM and the TGI (HOP-62 NSCLC) was > 100 µM. The TGI (RPMI-8226 leukemia) was > 100 µM, the TGI (OVCAR-5 ovarian) was > 100 µM and the TGI (MALME-3M melanoma) was > 100 µM. The TGI (SNB-19 CNS) was > 100 µM, the TGI (HCT-116 colon) was > 100 µM and the TGI (MCF7 breast) was > 100 µM. The TGI (U251 CNS) was > 100 µM, the TGI (SW-620 colon) was > 100 µM and the TGI (SR leukemia) was > 100 µM. The TGI (DU-145 prostate) was > 100 µM, the TGI (A549 NSCLC) was > 100 µM and the TGI (SK-MEL-5 melanoma) was > 100 µM. The TGI (CCRF-CEM leukemia) was > 100 µM, the TGI (NCI-H226 lung) was > 100 µM and the TGI (HCC-2998 colon) was > 100 µM. For the same compound, the TGI (UACC-62 melanoma) was > 100 µM and the TGI (CAKI-1 renal) was > 100 µM.

For `O=CN1CCN(C(=O)c2ccc(Cl)cc2)C1=S`, the TGI (OVCAR-3 ovarian) was 28.7 µM, the TGI (RXF 393 renal) was 31 µM and the TGI (NCI-H522 lung) was 31.2 µM. The TGI (SN12C renal) was 28 µM, the TGI (A498 renal) was 29.3 µM and the TGI (TK-10 renal) was 28.2 µM. It also gave a TGI (SF-295 CNS) of 76 µM, a TGI (LOX IMVI melanoma) of 24.5 µM and a TGI (SK-OV-3 ovarian) of 74.6 µM. For the same compound, the TGI (EKVX NSCLC) was 29 µM, the TGI (COLO 205 colon) was 41.9 µM and the TGI (HT29 colon) was 33 µM. It also gave a TGI (NCI-H23 lung) of 53.6 µM, a TGI (786-0 renal) of 19.7 µM and a TGI (IGROV1 ovarian) of 28.5 µM. For the same compound, the TGI (OVCAR-4 ovarian) was 35.5 µM, the TGI (SK-MEL-2 melanoma) was 36 µM and the TGI (MDA-MB-231 breast) was 34.5 µM. It also gave a TGI (MOLT-4 leukemia) of 48.2 µM, a TGI (HL-60(TB) leukemia) of 44.1 µM and a TGI (MDA-MB-435) of 28 µM. The TGI (SF-539 CNS) was 61.7 µM, the TGI (NCI/ADR-RES ovarian) was > 100 µM and the TGI (BT-549 breast) was 69.2 µM. For the same compound, the TGI (HCT-15 colon) was 55.8 µM, the TGI (NCI-H460 lung) was 52 µM and the TGI (KM12 colon) was 25.2 µM. For the same compound, the TGI (PC-3 prostate) was 32.1 µM, the TGI (SF-268 CNS) was 35.9 µM and the TGI (MDA-N) was 31.5 µM. The TGI (HOP-92 NSCLC) was 14.9 µM, the TGI (SNB-75 CNS) was 36.8 µM and the TGI (HS 578T breast) was > 100 µM. It also gave a TGI (SK-MEL-28 melanoma) of 39.6 µM, a TGI (UACC-257 melanoma) of 33.7 µM and a TGI (ACHN renal) of 31 µM. For the same compound, the TGI (M14 melanoma) was 27.7 µM, the TGI (OVCAR-8 ovarian) was 31.3 µM and the TGI (T-47D breast) was 36.4 µM. The TGI (K-562 leukemia) was 39.6 µM, the TGI (HOP-62 NSCLC) was 44 µM and the TGI (RPMI-8226 leukemia) was 17.1 µM. The TGI (OVCAR-5 ovarian) was 35.6 µM, the TGI (MALME-3M melanoma) was 41.8 µM and the TGI (SNB-19 CNS) was 29.5 µM. It also gave a TGI (HCT-116 colon) of 34.8 µM, a TGI (MCF7 breast) of 11 µM and a TGI (U251 CNS) of 28.2 µM. The TGI (SW-620 colon) was 36.5 µM, the TGI (DU-145 prostate) was 29.1 µM and the TGI (A549 NSCLC) was 28 µM. The TGI (CCRF-CEM leukemia) was 37.4 µM, the TGI (NCI-H226 lung) was 80 µM and the TGI (HCC-2998 colon) was 33.9 µM. It also gave a TGI (UACC-62 melanoma) of 29.3 µM and a TGI (CAKI-1 renal) of 27 µM.
